Experiment: Formulation preparation behaviour (jet pulverization, granulation)
Type: physicochemical
Settings: e.g. soluble granule, sodium salt
From the text: The crystalline 2.5 hydrate of topramezone sodium salt of the present invention has huge advantages over the anhydrous form of topramezone sodium salt with respect to formulation preparation. The anhydrous topramezone sodium salt can be prepared according to the preparation method of the topramezone potassium salt alike compound reported in US2002025910A. […] Furthermore, the formulation preparation process is difficult. For example, when preparing the soluble granule, creaming and caking of the ingredients frequently occurs, and granulation thus becomes difficult.

Row | Compound | behaviour during jet pulverization / granulation
1 | Cc1c(C(=O)c2cnn(C)c2[O-])ccc(S(C)(=O)=O)c1C1=NOCC1.[Na+] [crystalline 2.5 hydrate of topramezone sodium salt] | can be granulated easily
2 | Cc1c(C(=O)c2cnn(C)c2[O-])ccc(S(C)(=O)=O)c1C1=NOCC1.[Na+] [anhydrous topramezone sodium salt] | easy to agglomerate during jet pulverization

From patent US12365671B2, “Crystalline hydrate of topramezone sodium salt and preparation method therefor” (ROTAM AGROCHEM INTERNATIONAL COMPANY LIMITED, priority 2021, dated 2025)
